The values below come from patent US8741899B2, “(4-chloro-2-fluoro-N-(2-fluorophenyl)-5-[(8aR)-hexahydropyrrolo-[1,2-a]pyrazin-2(1H)-ylcarbonyl]-benzenesulfonamide, and pharmaceutically acceptable salts thereof” (AbbVie Inc., priority 2009, dated 2014).

A value given as a limit tells only on which side of the number the result lay.

In the assay the target is T1, Human Cav3.2 Channels (Homo sapiens, UniProt O95180).
T1 construct: expressed in transfected cells
T1 sequence (O95180 whole entry): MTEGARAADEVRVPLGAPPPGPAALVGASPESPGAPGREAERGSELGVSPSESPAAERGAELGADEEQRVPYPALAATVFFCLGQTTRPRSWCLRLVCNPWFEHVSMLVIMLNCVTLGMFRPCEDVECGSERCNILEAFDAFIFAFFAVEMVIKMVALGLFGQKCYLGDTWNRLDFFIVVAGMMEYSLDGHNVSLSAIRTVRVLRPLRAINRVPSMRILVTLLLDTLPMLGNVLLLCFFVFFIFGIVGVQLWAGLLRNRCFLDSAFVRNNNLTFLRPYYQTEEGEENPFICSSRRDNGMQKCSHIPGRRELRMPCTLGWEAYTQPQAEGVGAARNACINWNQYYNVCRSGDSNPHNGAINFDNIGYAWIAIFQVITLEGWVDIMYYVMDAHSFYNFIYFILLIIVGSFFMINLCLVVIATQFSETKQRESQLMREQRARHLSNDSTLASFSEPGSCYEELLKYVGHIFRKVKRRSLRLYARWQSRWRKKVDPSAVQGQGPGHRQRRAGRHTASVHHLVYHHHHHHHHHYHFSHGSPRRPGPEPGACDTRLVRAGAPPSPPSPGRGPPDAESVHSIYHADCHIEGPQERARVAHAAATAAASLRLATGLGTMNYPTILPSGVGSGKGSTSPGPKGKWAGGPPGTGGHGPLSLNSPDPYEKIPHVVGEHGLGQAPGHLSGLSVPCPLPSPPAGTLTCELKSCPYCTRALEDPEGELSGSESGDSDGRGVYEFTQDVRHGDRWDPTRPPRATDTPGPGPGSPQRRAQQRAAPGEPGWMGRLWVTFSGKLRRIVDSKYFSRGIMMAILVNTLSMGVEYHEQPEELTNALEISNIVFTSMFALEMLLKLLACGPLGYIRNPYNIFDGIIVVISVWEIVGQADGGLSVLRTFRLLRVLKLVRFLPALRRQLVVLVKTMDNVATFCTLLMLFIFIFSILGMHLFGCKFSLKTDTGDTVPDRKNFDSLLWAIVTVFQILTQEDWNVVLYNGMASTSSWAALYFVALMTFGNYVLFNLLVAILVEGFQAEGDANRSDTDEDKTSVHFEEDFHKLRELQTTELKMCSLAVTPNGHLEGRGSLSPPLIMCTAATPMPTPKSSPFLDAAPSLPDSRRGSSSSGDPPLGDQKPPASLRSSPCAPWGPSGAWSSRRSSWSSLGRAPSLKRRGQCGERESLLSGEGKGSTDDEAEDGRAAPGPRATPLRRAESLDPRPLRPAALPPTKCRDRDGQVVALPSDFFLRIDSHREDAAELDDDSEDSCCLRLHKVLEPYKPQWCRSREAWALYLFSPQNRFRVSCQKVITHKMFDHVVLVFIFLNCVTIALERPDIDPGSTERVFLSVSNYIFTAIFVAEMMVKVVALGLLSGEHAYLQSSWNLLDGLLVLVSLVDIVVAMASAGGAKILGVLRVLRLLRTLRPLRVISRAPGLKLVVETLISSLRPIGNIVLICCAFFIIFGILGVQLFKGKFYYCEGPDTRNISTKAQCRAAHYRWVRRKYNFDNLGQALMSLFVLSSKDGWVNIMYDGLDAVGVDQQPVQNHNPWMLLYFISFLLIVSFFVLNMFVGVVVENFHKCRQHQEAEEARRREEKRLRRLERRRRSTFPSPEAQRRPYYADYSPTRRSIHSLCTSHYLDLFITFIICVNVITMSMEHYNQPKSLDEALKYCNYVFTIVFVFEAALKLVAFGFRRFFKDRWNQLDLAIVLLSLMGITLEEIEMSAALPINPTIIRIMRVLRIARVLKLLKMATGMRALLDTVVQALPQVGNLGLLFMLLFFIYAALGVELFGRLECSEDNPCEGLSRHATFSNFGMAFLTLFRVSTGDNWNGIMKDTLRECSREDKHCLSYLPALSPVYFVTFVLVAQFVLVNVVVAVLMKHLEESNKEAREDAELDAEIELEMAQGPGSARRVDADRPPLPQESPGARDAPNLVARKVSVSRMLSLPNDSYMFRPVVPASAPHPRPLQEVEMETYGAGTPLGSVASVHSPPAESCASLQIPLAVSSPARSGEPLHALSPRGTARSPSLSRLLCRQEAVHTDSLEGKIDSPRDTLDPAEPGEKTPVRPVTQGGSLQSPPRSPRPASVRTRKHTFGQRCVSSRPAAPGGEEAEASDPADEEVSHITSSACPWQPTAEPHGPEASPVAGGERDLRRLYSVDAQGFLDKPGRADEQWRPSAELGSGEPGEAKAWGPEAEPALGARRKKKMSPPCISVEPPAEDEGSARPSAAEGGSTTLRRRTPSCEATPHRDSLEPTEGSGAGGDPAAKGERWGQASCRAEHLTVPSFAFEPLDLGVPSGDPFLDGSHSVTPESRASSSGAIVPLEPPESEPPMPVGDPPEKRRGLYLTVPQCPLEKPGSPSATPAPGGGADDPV
Briefly: Electrophysiologic (whole-cell patch-clamp) assessment of calcium channel activity in HEK293 cells stably expressing hCav3.2. The class given is cell-based. The following applies: −77 mV, geometric mean, read-out: Human Cav3.2 −77 mV IC50 (μM) GeoMean. The procedure: (i) In Vitro Methods—Electrophysiologic Assessment of Calcium Channel Activity:
Patch-clamp recordings were performed using HEK293 cells stably expressing hCav3.2. Cells were plated in T175 flasks and grown at 37° C. and under 5% CO2 to approximately 50% confluency. On the day of the experiment, cells were harvested with Detachin™ cell detachment solution (Genlantis, San Diego, Calif.) and maintained in serum-free culture medium supplemented with 25 mM HEPES up to several hours prior to experiment. Whole-cell patch-clamp recordings were obtained using extracellular saline consisting of (mM): 87.5 CsCl, 40 TEA-Cl, 5 CaCl2, 1 MgCl2, 10 HEPES, 10 glucose. The pH was adjusted to 7.2 with CsOH and the osmolarity was adjusted to approximately 310 mOsm with sucrose. Intracellular solution consisted of (mM): 112 CsCl, 27 CsF, 2 NaCl, 8.2 EGTA, 10 HEPES. Prior to an experiment 4 mM Mg2ATP was added and the pH was adjusted to 7.2 with CsOH with an osmolarity of approximately 290 mOsm. A two-pulse voltage protocol was utilized to assess compound inhibition. First, cells were held with an 8 s pre-pulse at −100 mV prior to a 160 ms test pulse to −30 mV. This was followed by an 8 s pre-pulse at approximately −75 mV prior to a […]. Increasing concentrations of antagonist were applied to individual cells in a multi-addition format with 5 minutes in each test concentration. For each cell, responses were normalized to dimethyl sulfoxide vehicle control to generate concentration-response curves.
On the technique in general: In patch-clamp work, channel activity is measured electrically.
`O=C(c1cccc(S(=O)(=O)N2CCN(c3ccc(F)cc3)CC2)c1)N1CCN2CCC[C@H]2C1` [Example 35, (8aS)-2-(3-{[4-(4-fluorophenyl)piperazin-1-yl]sulfonyl}benzoyl)octahydropyrrolo[1,2-a]pyrazine]: the IC50 (commonly the midpoint of a concentration-inhibition curve) came out at 4.8 µM.

As to `O=C(c1cccc(S(=O)(=O)Nc2ccccc2-c2ccccc2)c1)N1CCN2CCC[C@H]2C1` [Example 36, N-1,1′-biphenyl-2-yl-3-[(8aS)-hexahydropyrrolo[1,2-a]pyrazin-2(1H)-ylcarbonyl]benzenesulfonamide], the IC50 was 4.7 µM.

On to `O=C(c1cccc(S(=O)(=O)Nc2cccc(C(F)(F)F)c2)c1)N1CCN2CCCCC2C1` (stereo not drawn) [Example 38, 3-(octahydro-2H-pyrido[1,2-a]pyrazin-2-ylcarbonyl)-N-[3-(trifluoromethyl)phenyl]benzenesulfonamide], for which the IC50 was found to be 4.6 µM.

As to `O=C(c1cccc(S(=O)(=O)Nc2ccccc2F)c1)N1CCN2CCCCC2C1` (stereo not drawn) [Example 39, N-(2-fluorophenyl)-3-(octahydro-2H-pyrido[1,2-a]pyrazin-2-ylcarbonyl)benzenesulfonamide], the IC50 was 4.1 µM.

In the case of `O=C(c1cccc(S(=O)(=O)Nc2ccc(F)cc2)c1)N1CCC(N2CCCC2)CC1` [Example 40, N-(4-fluorophenyl)-3-[(4-pyrrolidin-1-ylpiperidin-1-yl)carbonyl]benzenesulfonamide], the IC50 amounted to 4.1 µM.

Take `O=C(c1cccc(S(=O)(=O)Nc2ccccc2)c1)N1CCC(N2CCCC2)CC1` [Example 41, N-phenyl-3-[(4-pyrrolidin-1-ylpiperidin-1-yl)carbonyl]benzenesulfonamide]: the IC50 turned out to be 5 µM.

Take `O=C(c1cccc(S(=O)(=O)Nc2ccc(C(F)(F)F)cc2)c1)N1CCC(N2CCCC2)CC1` [Example 42, 3-[(4-pyrrolidin-1-ylpiperidin-1-yl)carbonyl]-N-[4-(trifluoromethyl)phenyl]benzenesulfonamide]: the IC50 was found to be 5.8 µM.

In the case of `O=C(c1cccc(S(=O)(=O)Nc2cccc(C(F)(F)F)c2)c1)N1CCC(N2CCCC2)CC1` [Example 43, 3-[(4-pyrrolidin-1-ylpiperidin-1-yl)carbonyl]-N-[3-(trifluoromethyl)phenyl]benzenesulfonamide], the IC50 worked out at 4.9 µM.

Regarding `O=C(c1cccc(S(=O)(=O)Nc2cccc(F)c2)c1)N1CCC(N2CCCC2)CC1` [Example 44, N-(3-fluorophenyl)-3-[(4-pyrrolidin-1-ylpiperidin-1-yl)carbonyl]benzenesulfonamide], the IC50 turned out to be 4.9 µM.

For `O=C(c1cccc(S(=O)(=O)Nc2ccccc2F)c1)N1CCC(N2CCCC2)CC1` [Example 45, N-(2-fluorophenyl)-3-[(4-pyrrolidin-1-ylpiperidin-1-yl)carbonyl]benzenesulfonamide], the IC50 was above 10 µM.

Regarding `O=C(c1cccc(S(=O)(=O)Nc2ccc(F)cc2)c1)N1CCC(N2CCCCC2)CC1` [Example 46, 3-(1,4′-bipiperidin-1′-ylcarbonyl)-N-(4-fluorophenyl)benzenesulfonamide], the 50% inhibitory concentration (IC50) came out at 1.8 µM.

With `O=C(c1cccc(S(=O)(=O)Nc2ccccc2F)c1)N1CCC(N2CCCCC2)CC1` [Example 47, 3-(1,4′-bipiperidin-1′-ylcarbonyl)-N-(2-fluorophenyl)benzenesulfonamide], the IC50 amounted to 3.8 µM.

Take `O=C(c1cccc(S(=O)(=O)Nc2cccc(F)c2)c1)N1CCC(N2CCCCC2)CC1` [Example 48, 3-(1,4′-bipiperidin-1′-ylcarbonyl)-N-(3-fluorophenyl)benzenesulfonamide]: the IC50 is above 10 µM.

With `O=C(c1cccc(S(=O)(=O)Nc2ccc(C(F)(F)F)cc2)c1)N1CCC(N2CCCCC2)CC1` [Example 49, 3-(1,4′-bipiperidin-1′-ylcarbonyl)-N-[4-(trifluoromethyl)phenyl]benzenesulfonamide], the IC50 amounted to 1.3 µM.

As for `O=C(c1cccc(S(=O)(=O)N2CCN3CCC[C@@H]3C2)c1)N1CCN(C(c2ccc(F)cc2)c2ccc(F)cc2)CC1` [Example 50, (8aR)-2-{[3-({4-[bis(4-fluorophenyl)methyl]piperazin-1-yl}carbonyl)phenyl]sulfonyl}octahydropyrrolo[1,2-a]pyrazine], the IC50 was found to be 0.6 µM.
